Results: PubChem BioAssay AID1552 (Sanford-Burnham Center for Chemical Genomics, 2009)
Calls of active or inactive are those of the source. No rule for the calls is given here.

Target: Ubiquitin-conjugating enzyme E2 N (Homo sapiens) (UniProt P61088)
Assay: UBE2N binders by NMR, biophysical, purified protein (AID 1552)
Conditions: NMR binding to purified UBE2N

Sequence of Ubiquitin-conjugating enzyme E2 N (Homo sapiens) (P61088 whole entry, looked up): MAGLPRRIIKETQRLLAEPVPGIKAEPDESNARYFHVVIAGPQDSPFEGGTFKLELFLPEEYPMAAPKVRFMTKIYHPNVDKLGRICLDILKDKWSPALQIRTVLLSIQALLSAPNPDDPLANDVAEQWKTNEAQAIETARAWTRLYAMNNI

Compound | Kd
Cc1ccccc1CSc1nnc(C)n1N | > 4 mM (inactive)
CN1CCN(C(=O)/C=C\C(=O)O)CC1 | > 4 mM (inactive)
COc1ccc(CN2CCNC(=O)C2CC(=O)O)cc1C (configuration not stated) | > 4 mM (inactive)
C=CC(=O)N1CC2CC(C1)c1cccc(=O)n1C2 (configuration not stated) | > 4 mM (inactive)
C=C(C)[C@@H]1[C@H]2OC(=O)[C@@H]1[C@]1(O)C[C@H]3O[C@]34C(=O)O[C@H]2[C@]14C | > 4 mM (inactive)
CN1CCN(c2nc3c(c(=O)[nH]2)CCCC3)CC1 | > 4 mM (inactive)
Cc1c(C(=O)Nc2cnccn2)oc2ccccc12 | > 4 mM (inactive)
Cc1nn(CC(=O)N2CCCCC2)c(=O)c2ccccc12 | > 4 mM (inactive)
NS(=O)(=O)c1ccc(N=Cc2ccc[nH]2)cc1 | > 4 mM (inactive)
CN1C(=O)c2ccc(C(=O)NCc3ccccc3)cc2C1=O | > 4 mM (inactive)
CC(=O)Nc1cc(C(F)(F)F)ccc1N1CCOCC1 | > 4 mM (inactive)
NC(N)=Nc1nc2ccccc2o1 | > 4 mM (inactive)
O=C(O)c1ccc(-c2ccccn2)s1 | > 4 mM (inactive)
NC(=O)CNC(=O)c1ccccc1 | > 4 mM (inactive)
CC(=O)c1c(C)nc(-c2ccc(Cl)cc2Cl)n1O | > 4 mM (inactive)
O=C(Nn1c(=S)[nH]c2ccccc2c1=O)c1ccncc1 | > 4 mM (inactive)
COc1ncnc(N)c1[N+](=O)[O-] | > 4 mM (inactive)
Cc1cc(OC(=O)c2ccco2)c([N+](=O)[O-])c(=O)[nH]1 | > 4 mM (inactive)
Nc1nc(SCc2ccccc2)ns1 | > 4 mM (inactive)
Cc1nc(-c2cccc(-c3noc(C)n3)c2)no1 | > 4 mM (inactive)
O=C(O)C1NCCc2ccccc21 (configuration not stated) | > 4 mM (inactive)

Compound | Kd
CC(=O)Cc1nsc(NC(=O)c2ccc(C)cc2)n1 | > 4 mM (inactive)
O=c1c2ccccc2nc(-c2ccco2)n1-c1nccs1 | > 4 mM (inactive)
CSc1n[nH]c(NCc2ccccc2)n1 | > 4 mM (inactive)
O=C1NC(=S)NC(=O)C1=Cc1ccco1 | > 4 mM (inactive)
COc1cc2c(cc1OC)[C@@]13CCN4CC5=CCOC6CC(=O)N2C1[C@H]6[C@H]5C[C@H]43 (some centres not stated) | > 4 mM (inactive)
C[C@H]1[C@H]2CCC3C4CC=C5C[C@@H](N(C)C)CC[C@]5(C)C4CC[C@@]32CN1C (some centres not stated) | > 4 mM (inactive)
CCOc1ccc2ccccc2c1C(=O)N1CCOCC1 | > 4 mM (inactive)
CC(=O)Oc1c2c(c(CC=C(C)C)c3c1C(=O)C1=C[C@@H]4CC5C(C)(C)OC(C/C=C(\C)C(=O)O)(C4=O)[C@@]15O3)OC(C)(CCC=C(C)C)C=C2 (some centres not stated) | > 4 mM (inactive)
CN(C)S(=O)(=O)c1ccccc1C#N | > 4 mM (inactive)
CN1C(=O)N(C)C2NC(=O)NC21 (configuration not stated) | > 4 mM (inactive)
CC(C)(C)c1cc(N)n[nH]1 | > 4 mM (inactive)
COc1ccccc1NC(=O)C1CCCCC1 | > 4 mM (inactive)
CS(=O)(=O)c1nncn1-c1ccccc1 | > 4 mM (inactive)
COc1cccc(C(=O)N2CCOCC2)c1 | > 4 mM (inactive)
O=C1C2C3CCC(O3)C2C(=O)N1c1cccc(F)c1 (configuration not stated) | > 4 mM (inactive)
COc1cc(O)c(C(=O)c2ccccc2)cc1O | > 4 mM (inactive)
O=C(/C=C/c1ccccc1)c1ccc(O[C@@H]2O[C@H](CO)[C@@H](O)[C@H](O)[C@H]2O)cc1O | > 4 mM (inactive)
O=P1(O)c2ccccc2Nc2ccccc21 | > 4 mM (inactive)
CC(C)c1ccc2c(c1O)CC[C@H]1C3=C(CC[C@]21C)C(=O)OC3 | > 4 mM (inactive)
Cc1nn2c3ccccc3nc2n(Cc2ccccc2)c1=O | > 4 mM (inactive)
NCc1ccc(S(N)(=O)=O)cc1 | > 4 mM (inactive)

Compound | Kd
O=c1[nH]c(N2CCOCC2)nc2ccccc12 | > 4 mM (inactive)
Cn1c(=O)n(-c2cccc(Cl)c2)c(=O)n1C | > 4 mM (inactive)
Nc1nnc(SCc2ccc3c(c2)OCO3)s1 | > 4 mM (inactive)
COC(=O)c1noc(-c2ccc(OC)cc2)n1 | > 4 mM (inactive)
CC1=C(/C=C/C(C)=C/C=C/C(C)=C/C=C/C=C(C)/C=C/C=C(C)/C=C/C2=C(C)CCCC2(C)C)C(C)(C)CCC1 | > 4 mM (inactive)
NC1Cc2ccccc2C1 | > 4 mM (inactive)
Cn1cccc1C(=S)N1CCOCC1 | > 4 mM (inactive)
COc1ccc2c(c1)O[C@H]1c3ccc(OC)cc3OC[C@@H]21 | > 4 mM (inactive)
O=c1cc(-c2cc(O)c(O)c(O)c2)oc2cc(O)cc(O)c12 | > 4 mM (inactive)
O=C(CC1Nc2ccccc2NC1=O)Nc1ccc(O)cc1 (configuration not stated) | > 4 mM (inactive)
COc1cc(OC)c(OC)cc1C=O | > 4 mM (inactive)
FC(F)(F)c1cc(-c2ccco2)nc(N2CCOCC2)n1 | > 4 mM (inactive)
c1csc(-c2nnc3ccccn23)c1 | > 4 mM (inactive)
NC(=O)c1c[nH]c2ccccc12 | > 4 mM (inactive)
CN(C)c1ccc(CNn2cnnc2)cc1 | > 4 mM (inactive)
Nc1nc(SCc2ccc3c(c2)OCO3)n[nH]1 | > 4 mM (inactive)
COc1c(O)cc(O)cc1O | > 4 mM (inactive)
CCCn1c(C)cc(=O)[nH]c1=O | > 4 mM (inactive)
CN1CCC(NC(=S)NC2CC2)CC1 | > 4 mM (inactive)
CCCS(=O)(=O)N1CCN(c2ccccn2)CC1 | > 4 mM (inactive)
C=CC(C1=CC(=O)C(OC)=CC1=O)c1ccc(O)cc1 (configuration not stated) | > 4 mM (inactive)

Compound | Kd
NC1=NC(=O)/C(=C/c2ccccc2[N+](=O)[O-])S1 | > 4 mM (inactive)
Cc1nc2c(n1O)CCc1c-2no[n+]1[O-] | > 4 mM (inactive)
O=C(NCc1cccs1)c1ccc2c(c1)OCCO2 | > 4 mM (inactive)
C[C@H]1[C@H](C)CC[C@]2(C(=O)O)CC[C@]3(C)C(=CCC4[C@@]5(C)C[C@@H](O)[C@H](O)[C@@](C)(CO)C5[C@H](O)C[C@]43C)[C@H]12 (some centres not stated) | > 4 mM (inactive)
CCN(CC)c1nc2n(c(=O)n1)CCO2 | > 4 mM (inactive)
O=C(O)c1cncc(-c2cccs2)c1 | > 4 mM (inactive)
CN1CCC(NC(=O)c2cnccn2)CC1 | > 4 mM (inactive)
CCc1nnsc1C(=O)Nc1nccs1 | > 4 mM (inactive)
C=C(C)[C@H]1CC=C(C(=O)O)CC1 | > 4 mM (inactive)
NC(=O)c1cccc2c1OCCO2 | > 4 mM (inactive)
NC(N)=NOCC[C@H](N)C(=O)O | > 4 mM (inactive)
CN(C)c1nc(N)nc(Cn2ccnc2)n1 | > 4 mM (inactive)
O=C(O)c1sccc1-n1cccc1 | > 4 mM (inactive)
CCC(C)C(=O)O[C@@H]1C[C@@]2(C)[C@H](c3ccoc3)OC(=O)CC23OC2(C)OC34[C@H](OC(=O)C(C)C)[C@@]3(O)[C@@H](OC(=O)C5(C)OC5C)[C@@]5(C)C[C@]3(O)[C@@](C)([C@H]5CC(=O)OC)C14O2 (some centres not stated) | > 4 mM (inactive)
CC1=NN(c2ccc(N)cc2)C(=O)C1 | > 4 mM (inactive)
O=C(C1CCC(C(=O)N2CCCC2)CC1)N1CCCC1 (configuration not stated) | > 4 mM (inactive)
O=C1Nc2ccccc2C1(O)Cc1ccncc1 (configuration not stated) | > 4 mM (inactive)
Cc1cc(O)c(C=O)c(O)c1C(=O)O | > 4 mM (inactive)
Cc1ccc(C(=O)NC2=NCCS2)o1 | > 4 mM (inactive)
